Data on six compounds can be found in ChEMBL document CHEMBL1909046, “DrugMatrix in vitro pharmacology data”.

Each structure is given as a SMILES string.

Chain of Platelet-activating factor receptor (P25105 whole entry): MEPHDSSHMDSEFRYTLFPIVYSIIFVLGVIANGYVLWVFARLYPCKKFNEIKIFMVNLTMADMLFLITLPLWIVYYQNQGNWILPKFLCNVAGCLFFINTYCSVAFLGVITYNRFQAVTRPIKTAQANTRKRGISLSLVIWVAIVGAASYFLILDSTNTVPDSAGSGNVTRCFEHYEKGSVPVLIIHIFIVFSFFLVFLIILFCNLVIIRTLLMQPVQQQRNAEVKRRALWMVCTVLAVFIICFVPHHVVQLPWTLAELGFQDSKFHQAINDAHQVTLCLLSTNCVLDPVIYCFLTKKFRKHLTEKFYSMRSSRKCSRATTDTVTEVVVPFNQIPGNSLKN

In one data set the target is T1, Vasoactive intestinal polypeptide receptor 1 (Homo sapiens, UniProt P32241). Note: in other assays of this panel Not Active means under 50% inhibition at 10 µM.
T1 sequence (P32241 whole entry): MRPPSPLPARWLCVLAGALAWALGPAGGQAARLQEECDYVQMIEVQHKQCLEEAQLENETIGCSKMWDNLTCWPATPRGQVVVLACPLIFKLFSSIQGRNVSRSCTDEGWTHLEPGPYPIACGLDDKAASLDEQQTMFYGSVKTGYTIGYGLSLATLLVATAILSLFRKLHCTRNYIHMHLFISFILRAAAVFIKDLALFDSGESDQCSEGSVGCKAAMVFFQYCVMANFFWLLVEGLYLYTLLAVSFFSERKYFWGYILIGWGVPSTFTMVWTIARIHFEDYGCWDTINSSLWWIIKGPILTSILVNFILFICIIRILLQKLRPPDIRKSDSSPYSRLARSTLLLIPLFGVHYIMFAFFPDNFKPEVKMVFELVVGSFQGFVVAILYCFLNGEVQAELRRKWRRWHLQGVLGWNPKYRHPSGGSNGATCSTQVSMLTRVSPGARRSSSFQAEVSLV
Experiment: not given
Format: cell membranes, Membrane. The conditions noted are these: ht-29.
As for `COS(C)(=O)=O` [METHANESULFONIC ACID METHYL ESTER], the IC50 entry is on record as “Not Active”.

Turning to `CN1[C@@H]2CC[C@H]1C[C@@H](OC(=O)c1c[nH]c3ccccc13)C2` [TROPISETRON], the IC50 entry is on record as “Not Active”.

`COC(=O)c1ccc(O)cc1` [METHYLPARABEN]: the IC50 result was “Not Active”.

Take `c1ccc2[nH]c(-c3cscn3)nc2c1` [THIABENDAZOLE]: the IC50 entry is recorded as “Not Active”.

For `C[C@](N)(Cc1ccc(O)cc1)C(=O)O` [METYROSINE], the IC50 entry was “Not Active”.

For the compound `CCC[C@@H]1C[C@@H](C(=O)N[C@@H]([C@H]2O[C@H](SC)[C@H](O)[C@@H](O)[C@H]2O)[C@@H](C)O)N(C)C1` [LINCOMYCIN], the IC50 result was “Not Active”.

The next data set deals with T2, 3-hydroxy-3-methylglutaryl-coenzyme A reductase (Homo sapiens, UniProt P04035).
T2 sequence (P04035 whole entry): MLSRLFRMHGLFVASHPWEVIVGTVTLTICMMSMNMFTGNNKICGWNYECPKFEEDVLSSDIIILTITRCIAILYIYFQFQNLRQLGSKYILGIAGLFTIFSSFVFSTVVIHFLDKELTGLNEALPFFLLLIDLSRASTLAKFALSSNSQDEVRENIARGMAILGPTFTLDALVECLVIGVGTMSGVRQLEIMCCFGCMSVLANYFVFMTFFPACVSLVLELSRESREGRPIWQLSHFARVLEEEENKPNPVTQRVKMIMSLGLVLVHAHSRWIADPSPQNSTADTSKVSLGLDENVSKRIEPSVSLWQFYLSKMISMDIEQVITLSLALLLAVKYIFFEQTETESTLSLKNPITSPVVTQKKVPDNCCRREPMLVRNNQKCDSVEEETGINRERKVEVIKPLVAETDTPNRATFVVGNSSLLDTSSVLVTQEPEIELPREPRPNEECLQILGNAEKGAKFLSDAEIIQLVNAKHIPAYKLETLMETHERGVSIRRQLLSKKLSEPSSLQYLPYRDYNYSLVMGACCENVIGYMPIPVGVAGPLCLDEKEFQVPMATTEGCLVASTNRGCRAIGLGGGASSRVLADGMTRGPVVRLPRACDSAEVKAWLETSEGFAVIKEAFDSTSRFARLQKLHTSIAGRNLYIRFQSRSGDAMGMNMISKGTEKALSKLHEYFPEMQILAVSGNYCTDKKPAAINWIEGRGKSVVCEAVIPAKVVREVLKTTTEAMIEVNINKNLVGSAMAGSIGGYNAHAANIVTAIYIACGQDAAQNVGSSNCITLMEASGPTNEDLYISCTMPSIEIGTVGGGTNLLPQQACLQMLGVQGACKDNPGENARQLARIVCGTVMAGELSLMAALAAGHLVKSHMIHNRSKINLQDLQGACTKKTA
Experiment: not given
Also noted: species or system Escherichia coli.
Details: not given
Regarding `COS(C)(=O)=O` [METHANESULFONIC ACID METHYL ESTER], the IC50 result is given as “Not Active”.

With `CN1[C@@H]2CC[C@H]1C[C@@H](OC(=O)c1c[nH]c3ccccc13)C2` [TROPISETRON], the IC50 entry is given as “Not Active”.

Take `COC(=O)c1ccc(O)cc1` [METHYLPARABEN]: the IC50 entry was “Not Active”.

With `c1ccc2[nH]c(-c3cscn3)nc2c1` [THIABENDAZOLE], the IC50 entry is given as “Not Active”.

For `C[C@](N)(Cc1ccc(O)cc1)C(=O)O` [METYROSINE], the IC50 result was “Not Active”.

For the compound `CCC[C@@H]1C[C@@H](C(=O)N[C@@H]([C@H]2O[C@H](SC)[C@H](O)[C@@H](O)[C@H]2O)[C@@H](C)O)N(C)C1` [LINCOMYCIN], the IC50 result is reported as “Not Active”.

Test system in another data set: not listed separately
Briefly: DRUGMATRIX: Imidazoline I2, Central radioligand binding (ligand: [3H] Idazoxan). The conditions noted are these: Not Active = under 50% inhibition at 10 µM. The format is cell membranes, Rattus norvegicus, Wistar, Cerebral cortex, Membrane.
Consider `COS(C)(=O)=O` [METHANESULFONIC ACID METHYL ESTER], for which the IC50 entry is given as “Not Active” and the Ki entry was “Not Active”.

`CN1[C@@H]2CC[C@H]1C[C@@H](OC(=O)c1c[nH]c3ccccc13)C2` [TROPISETRON]: the IC50 entry is given as “Not Active” and the Ki result is reported as “Not Active”.

Regarding `COC(=O)c1ccc(O)cc1` [METHYLPARABEN], the IC50 entry is recorded as “Not Active” and the Ki entry was “Not Active”.

Regarding `c1ccc2[nH]c(-c3cscn3)nc2c1` [THIABENDAZOLE], the IC50 entry is listed as “Not Active” and the Ki entry is listed as “Not Active”.

`C[C@](N)(Cc1ccc(O)cc1)C(=O)O` [METYROSINE]: the IC50 result is “Not Active” and the Ki result is recorded as “Not Active”.

For `CCC[C@@H]1C[C@@H](C(=O)N[C@@H]([C@H]2O[C@H](SC)[C@H](O)[C@@H](O)[C@H]2O)[C@@H](C)O)N(C)C1` [LINCOMYCIN], the IC50 entry was “Not Active” and the Ki entry is given as “Not Active”.

The next data set addresses Platelet-activating factor receptor (Homo sapiens, UniProt P25105). Briefly: biochemical. Format: tissue-based. The conditions noted are these: platelet.
Consider `COS(C)(=O)=O` [METHANESULFONIC ACID METHYL ESTER], for which the IC50 entry is “Not Active”.

With `CN1[C@@H]2CC[C@H]1C[C@@H](OC(=O)c1c[nH]c3ccccc13)C2` [TROPISETRON], the IC50 entry is recorded as “Not Active”.

Take `COC(=O)c1ccc(O)cc1` [METHYLPARABEN]: the IC50 result is given as “Not Active”.

Consider `c1ccc2[nH]c(-c3cscn3)nc2c1` [THIABENDAZOLE], for which the IC50 result is reported as “Not Active”.

For `C[C@](N)(Cc1ccc(O)cc1)C(=O)O` [METYROSINE], the IC50 result is reported as “Not Active”.

`CCC[C@@H]1C[C@@H](C(=O)N[C@@H]([C@H]2O[C@H](SC)[C@H](O)[C@@H](O)[C@H]2O)[C@@H](C)O)N(C)C1` [LINCOMYCIN]: the IC50 result was “Not Active”.

Test system in the next data set: not listed separately
Briefly: DRUGMATRIX: Purinergic P2X radioligand binding (ligand: [3H] alpha, beta-Methylene-ATP). The format is cell membranes, Oryctolagus cuniculus, New Zealand albino, Urinary bladder, Membrane. The conditions noted are these: Not Active = under 50% inhibition at 10 µM.
Turning to `COS(C)(=O)=O` [METHANESULFONIC ACID METHYL ESTER], the IC50 entry is reported as “Not Active” and the Ki result was “Not Active”.

With `CN1[C@@H]2CC[C@H]1C[C@@H](OC(=O)c1c[nH]c3ccccc13)C2` [TROPISETRON], the IC50 result is given as “Not Active” and the Ki entry was “Not Active”.

For the compound `COC(=O)c1ccc(O)cc1` [METHYLPARABEN], the IC50 result is “Not Active” and the Ki entry was “Not Active”.

Consider `c1ccc2[nH]c(-c3cscn3)nc2c1` [THIABENDAZOLE], for which the IC50 entry was “Not Active” and the Ki result is recorded as “Not Active”.

For `C[C@](N)(Cc1ccc(O)cc1)C(=O)O` [METYROSINE], the IC50 entry is on record as “Not Active” and the Ki entry is “Not Active”.

Consider `CCC[C@@H]1C[C@@H](C(=O)N[C@@H]([C@H]2O[C@H](SC)[C@H](O)[C@@H](O)[C@H]2O)[C@@H](C)O)N(C)C1` [LINCOMYCIN], for which the IC50 entry is given as “Not Active” and the Ki entry is “Not Active”.

Another data set addresses T3, 5-hydroxytryptamine receptor 1A (Rattus norvegicus, UniProt P19327).
T3 sequence (P19327 whole entry): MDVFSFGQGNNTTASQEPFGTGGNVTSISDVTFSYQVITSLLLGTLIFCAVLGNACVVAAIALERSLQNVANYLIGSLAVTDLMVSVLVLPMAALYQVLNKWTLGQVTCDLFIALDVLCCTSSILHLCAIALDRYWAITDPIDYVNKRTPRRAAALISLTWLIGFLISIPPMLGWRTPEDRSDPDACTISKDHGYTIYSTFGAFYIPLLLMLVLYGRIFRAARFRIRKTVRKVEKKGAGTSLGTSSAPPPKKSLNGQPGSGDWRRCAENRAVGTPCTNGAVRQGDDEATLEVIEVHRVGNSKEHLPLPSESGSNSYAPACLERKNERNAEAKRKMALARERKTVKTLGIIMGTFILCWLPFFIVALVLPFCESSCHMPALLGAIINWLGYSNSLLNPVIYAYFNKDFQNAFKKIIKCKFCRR
Experiment: not given
The format is cell membranes, CHO-K1, Membrane. The conditions noted are these: cho-k1.
Turning to `COS(C)(=O)=O` [METHANESULFONIC ACID METHYL ESTER], the IC50 result is “Not Active”.

As for `CN1[C@@H]2CC[C@H]1C[C@@H](OC(=O)c1c[nH]c3ccccc13)C2` [TROPISETRON], the IC50 result was “Not Active”.

For the compound `COC(=O)c1ccc(O)cc1` [METHYLPARABEN], the IC50 result is “Not Active”.

Consider `c1ccc2[nH]c(-c3cscn3)nc2c1` [THIABENDAZOLE], for which the IC50 entry is recorded as “Not Active”.

As for `C[C@](N)(Cc1ccc(O)cc1)C(=O)O` [METYROSINE], the IC50 entry was “Not Active”.

With `CCC[C@@H]1C[C@@H](C(=O)N[C@@H]([C@H]2O[C@H](SC)[C@H](O)[C@@H](O)[C@H]2O)[C@@H](C)O)N(C)C1` [LINCOMYCIN], the IC50 result is “Not Active”.

For the next data set, the target named is T4, Cytochrome P450 2A6 (Homo sapiens, UniProt P11509). Note: in other assays of this panel Not Active means under 50% inhibition at 10 µM.
T4 sequence (P11509 whole entry): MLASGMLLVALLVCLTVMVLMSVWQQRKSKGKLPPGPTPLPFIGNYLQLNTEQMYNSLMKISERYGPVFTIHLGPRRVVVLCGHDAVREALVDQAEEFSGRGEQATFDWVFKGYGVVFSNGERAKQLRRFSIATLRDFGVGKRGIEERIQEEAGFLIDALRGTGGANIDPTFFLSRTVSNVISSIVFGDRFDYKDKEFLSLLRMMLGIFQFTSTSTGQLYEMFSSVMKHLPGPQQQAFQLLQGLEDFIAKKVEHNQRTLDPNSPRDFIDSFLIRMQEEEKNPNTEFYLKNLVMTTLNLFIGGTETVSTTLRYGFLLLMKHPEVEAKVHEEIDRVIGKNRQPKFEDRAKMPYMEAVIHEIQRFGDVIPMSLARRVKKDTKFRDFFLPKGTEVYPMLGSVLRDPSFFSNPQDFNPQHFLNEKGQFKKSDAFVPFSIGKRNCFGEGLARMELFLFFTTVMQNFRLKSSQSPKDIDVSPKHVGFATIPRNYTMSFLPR
Experiment: not given
The conditions noted are these: bti-tn-5b1-4.
`COS(C)(=O)=O` [METHANESULFONIC ACID METHYL ESTER]: the IC50 entry was “Not Active” and the Ki result is reported as “Not Active”.

As to `CN1[C@@H]2CC[C@H]1C[C@@H](OC(=O)c1c[nH]c3ccccc13)C2` [TROPISETRON], the IC50 result was “Not Active” and the Ki result is reported as “Not Active”.

With `COC(=O)c1ccc(O)cc1` [METHYLPARABEN], the IC50 result is reported as “Not Active” and the Ki result is on record as “Not Active”.

Consider `c1ccc2[nH]c(-c3cscn3)nc2c1` [THIABENDAZOLE], for which the IC50 entry is “Not Active” and the Ki entry is “Not Active”.

In the case of `C[C@](N)(Cc1ccc(O)cc1)C(=O)O` [METYROSINE], the IC50 result was “Not Active” and the Ki result was “Not Active”.

Take `CCC[C@@H]1C[C@@H](C(=O)N[C@@H]([C@H]2O[C@H](SC)[C@H](O)[C@@H](O)[C@H]2O)[C@@H](C)O)N(C)C1` [LINCOMYCIN]: the IC50 result is reported as “Not Active” and the Ki entry is “Not Active”.
